Test results published in ChEMBL document CHEMBL5316301, “Dual Nicotinamide Phosphoribosyltransferase (NAMPT) and Indoleamine 2,3-Dioxygenase 1 (IDO1) Inhibitors for the Treatment of Drug-Resistant Nonsmall-Cell Lung Cancer” (J Med Chem, 2023).
Values belong to the compound of their own block, whether it stands above or below them. Calls of active or inactive are those of the source. The calls are words filed in the database; no cut-off is given here.

Columns and labels:
[1] = target: Nicotinamide phosphoribosyltransferase (Homo sapiens, UniProt P43490); assay: Inhibition of recombinant NAMPT (unknown origin) incubated for 60 mins by SpectraMax microplate reader analysis
A549 [2] = assay: Downregulation of Smad3 expression in NAMPT inhibitor-resistant A549 cells at 5 to 15 uM measured for 24 hrs; assay type: functional, cell-based; settings: Homo sapiens, dose 5-15 µM
A549 [3] = assay: cells; settings: Homo sapiens, A549, 48 h
A549 [4] = assay: Antitumor activity against NAMPT inhibitor-resistant A549 cells xenografted in athymic nude mouse assessed as tumor growth inhibition at 50 mg/kg, po bid measured on day 21 by caliper method; assay type: functional, Homo sapiens; settings: A549, 504 h, time 21 day, read-out: TGI
A549 [5] = assay: Antiproliferative activity against NAMPT inhibitor-resistant A549 cells assessed as reduction in cell viability in presence of NAC measured for 48 hrs by CCK-8 assay; assay type: functional, cell-based; settings: Homo sapiens
A549 [6] = assay: Antimigratory activity against NAMPT inhibitor-resistant A549 cells assessed as decrease in Snail expression incubated 24 hrs by Western blot analysis; assay type: functional, cell-based; settings: Homo sapiens, dose 5-15 µM
A549 [7] = assay: Effect on intracellular lipid level in NAMPT inhibitor-resistant A549 cells measured for 24 hrs by oil red staining based microscopic analysis; assay type: functional, cell-based; settings: Homo sapiens
A549 [8] = assay: Antitumor activity against NAMPT inhibitor-resistant A549 cells xenografted in athymic nude mouse at 100 to 200 mg/kg, po measured for 14 days in presence of epacadostat; assay type: functional, organism-based; settings: Homo sapiens, dose 100-200 mg/kg, time 14.0 day
[9] = Oral bioavailability in Sprague-Dawley rat at 25 mg/kg; assay type: ADME, organism-based; settings: in vivo
A549 [10] = assay: Induction of ROS production in NAMPT inhibitor-resistant A549 cells assessed as ROS accumulation incubated for 24 hrs by DCFH-DA staining based flow cytometry analysis; assay type: functional, cell-based; settings: Homo sapiens, dose 5-15 µM
A549 [11] = assay: Effect on intracellular lipid level in NAMPT inhibitor-resistant A549 cells measured for 24 hrs by nile red staining based microscopic analysis; assay type: functional, cell-based; settings: Homo sapiens
[12] = Toxicity in athymic nude mouse xenografted with NAMPT inhibitor-resistant A549 cells assessed as change in body weight at 50 to 200 mg/kg, po measured on day 21; assay type: organism-based; settings: in vivo, 504 h, dose 50-200 mg/kg, time 21 day
A549 [13] = assay: Antitumor activity against NAMPT inhibitor-resistant A549 cells xenografted in athymic nude mouse assessed as tumor growth inhibition at 200 mg/kg, po bid measured on day 21 by caliper method; assay type: functional, Homo sapiens; settings: A549, 504 h, time 21 day, read-out: TGI
A549 [14] = assay: Antitumor activity against NAMPT inhibitor-resistant A549 cells xenografted in athymic nude mouse at 100 mg/kg, po measured for 14 days in presence of FK866; assay type: functional, organism-based; settings: Homo sapiens, time 14.0 day
[15] = target: T1, Indoleamine 2,3-dioxygenase 1 (Homo sapiens, UniProt P14902); assay: Inhibition of human recombinant IDO1 in human HeLa cells assessed as reduction in N-formylkynurenine formation using L-tryptophan as substrate preincubated for 24 hrs followed by substrate addition and measured after 30 mins; assay type: cell-based
A549 [16] = assay: Downregulation of IDO1 expression in NAMPT inhibitor-resistant A549 cells measured for 12 hrs in presence of MG-132 by Western blot analysis; assay type: functional, cell-based; settings: Homo sapiens
A549 [17] = assay: Downregulation of NAD+ level in NAMPT inhibitor-resistant A549 cells at 10 uM measured for 24 hrs in presence of NMN/L-tryptophan/QA; assay type: functional, cell-based; settings: Homo sapiens
A549 [18] = assay: Downregulation of IDO1 expression in NAMPT inhibitor-resistant A549 cells measured for 24 hrs by Western blot analysis; assay type: functional, cell-based; settings: Homo sapiens, dose 5-10 µM
[19] = Clearance in Sprague-Dawley rat at 5 mg/kg, iv; assay type: ADME, organism-based; settings: in vivo
A549 [20] = assay: Antitumor activity against NAMPT inhibitor-resistant A549 cells xenografted in athymic nude mouse assessed as tumor growth inhibition at 100 mg/kg, po bid measured on day 21 by caliper method; assay type: functional, Homo sapiens; settings: A549, 504 h, time 21 day, read-out: TGI
A549 [21] = assay: Antimigratory activity against NAMPT inhibitor-resistant A549 cells assessed as reduction in cell migration at 5 uM incubated for 24 hrs in presence of taxol by inverted microscopic analysis; assay type: functional, cell-based; settings: Homo sapiens
A549 [22] = assay: Downregulation of IDO1 expression in NAMPT inhibitor-resistant A549 cells measured for 12 hrs in presence of cycloheximide by Western blot analysis; assay type: functional, cell-based; settings: Homo sapiens
[23] = AUC in Sprague-Dawley rat at 25 mg/kg, po; assay type: ADME, organism-based; set-up: dose 25 mg/kg, route po; settings: in vivo
A549 [24] = assay: Antitumor activity against NAMPT inhibitor-resistant A549 cells xenografted in athymic nude mouse at 100 to 200 mg/kg, po measured for 14 days in presence of FK866; assay type: functional, organism-based; settings: Homo sapiens, dose 100-200 mg/kg, time 14.0 day
[25] = Apparent volume of distribution in Sprague-Dawley rat at 5 mg/kg, iv; assay type: ADME, organism-based; settings: in vivo, read-out: Vz
A549 [26] = assay: Antitumor activity against NAMPT inhibitor-resistant A549 cells xenografted in athymic nude mouse assessed as reduction in tumor size at 50 to 200 mg/kg, po bid measured on day 21 in presence of taxol by caliper method; assay type: functional, organism-based; settings: Homo sapiens, dose 50-200 mg/kg, time 21.0 day
[27] = target: T1, Indoleamine 2,3-dioxygenase 1; assay: Inhibition of human recombinant IDO1 assessed as reduction in N-formylkynurenine formation using L-tryptophan as substrate preincubated for 30 mins followed by substrate addition and measured after 10 mins by SpectraMax microplate reader analysis
Danio rerio [28] = organism: Danio rerio; assay: Induction of ROS production in zebra fish embryos assessed as increase in green fluorescence at 5 uM measured for 24 hrs by DCFH-DA staining based inverted microscopic analysis; assay type: functional
A549 [29] = assay: Downregulation of NAD+ level in NAMPT inhibitor-resistant A549 cells at 10 uM measured for 24 hrs; assay type: functional, cell-based; settings: Homo sapiens
[30] = Toxicity in athymic nude mouse xenografted with NAMPT inhibitor-resistant A549 cells assessed as mortality at 50 to 200 mg/kg, po measured on day 21; assay type: organism-based; settings: in vivo, 504 h, dose 50-200 mg/kg, time 21 day
A549 [31] = assay: Antiproliferative activity against NAMPT inhibitor-resistant A549 cells assessed as reduction in cell viability in presence of NMN and L-tryptophan measured for 48 hrs by CCK-8 assay; assay type: functional, cell-based; settings: Homo sapiens
Danio rerio [32] = organism: Danio rerio; assay: Induction of ROS production in zebra fish embryos assessed as increase in green fluorescence at 10 uM measured for 24 hrs by DCFH-DA staining based inverted microscopic analysis; assay type: functional
A549 [33] = assay: Antitumor activity against NAMPT inhibitor-resistant A549 cells xenografted in athymic nude mouse at 100 mg/kg, po measured for 14 days in presence of epacadostat; assay type: functional, organism-based; settings: Homo sapiens, time 14.0 day
A549 [34] = assay: Antiproliferative activity against NAMPT inhibitor-resistant A549 cells assessed as reduction in cell viability in presence of NMN/L-tryptophan/QA measured for 48 hrs by CCK-8 assay; assay type: functional, cell-based; settings: Homo sapiens
A549 [35] = assay: Antimigratory activity against NAMPT inhibitor-resistant A549 cells assessed as inhibition of cell migration measured after 24 hrs by crystal violet staining based microscopic analysis; assay type: functional; settings: Homo sapiens, dose 5-15 µM
A549 [36] = assay: Inhibition of colony formation in NAMPT inhibitor-resistant A549 cells […] by crystal violet staining analysis; assay type: functional, cell-based; settings: Homo sapiens, dose 5-15 µM
A549 [37] = assay: Induction of ROS production in NAMPT inhibitor-resistant A549 cells assessed as ROS accumulation at 5 to 15 uM incubated for 24 hrs in presence of NAC by DCFH-DA staining based flow cytometry analysis; assay type: functional, cell-based; settings: Homo sapiens, dose 5-15 µM
A549 [38] = assay: Downregulation of NAMPT expression in NAMPT NAMPT inhibitor-resistant A549 cells measured for 24 hrs by Western blot analysis; assay type: functional, cell-based; settings: Homo sapiens, dose 5-10 µM
A549 [39] = assay: Antimigratory activity against NAMPT inhibitor-resistant A549 cells assessed as decrease in slug expression incubated 24 hrs by Western blot analysis; assay type: functional, cell-based; settings: Homo sapiens, dose 5-15 µM
A549 [40] = assay: Antitumor activity against NAMPT inhibitor-resistant A549 cells xenografted in athymic nude mouse assessed as tumor growth inhibition at 100 mg/kg, po bid measured on day 21 in presence of taxol by caliper method; assay type: functional, Homo sapiens; settings: A549, 504 h, time 21 day, read-out: TGI

T1 sequence (P14902 whole entry): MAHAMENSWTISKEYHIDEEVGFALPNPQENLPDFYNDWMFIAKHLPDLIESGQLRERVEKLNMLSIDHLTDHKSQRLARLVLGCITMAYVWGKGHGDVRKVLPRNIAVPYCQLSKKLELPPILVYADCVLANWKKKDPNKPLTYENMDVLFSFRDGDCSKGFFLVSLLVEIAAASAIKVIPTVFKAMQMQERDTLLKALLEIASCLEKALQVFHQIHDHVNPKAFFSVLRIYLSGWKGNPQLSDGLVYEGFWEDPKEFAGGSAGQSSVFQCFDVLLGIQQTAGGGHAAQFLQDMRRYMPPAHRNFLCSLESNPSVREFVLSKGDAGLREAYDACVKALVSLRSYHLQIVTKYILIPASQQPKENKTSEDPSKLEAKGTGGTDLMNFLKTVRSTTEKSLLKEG
Nicotinamide phosphoribosyltransferase, sequence (P43490 whole entry): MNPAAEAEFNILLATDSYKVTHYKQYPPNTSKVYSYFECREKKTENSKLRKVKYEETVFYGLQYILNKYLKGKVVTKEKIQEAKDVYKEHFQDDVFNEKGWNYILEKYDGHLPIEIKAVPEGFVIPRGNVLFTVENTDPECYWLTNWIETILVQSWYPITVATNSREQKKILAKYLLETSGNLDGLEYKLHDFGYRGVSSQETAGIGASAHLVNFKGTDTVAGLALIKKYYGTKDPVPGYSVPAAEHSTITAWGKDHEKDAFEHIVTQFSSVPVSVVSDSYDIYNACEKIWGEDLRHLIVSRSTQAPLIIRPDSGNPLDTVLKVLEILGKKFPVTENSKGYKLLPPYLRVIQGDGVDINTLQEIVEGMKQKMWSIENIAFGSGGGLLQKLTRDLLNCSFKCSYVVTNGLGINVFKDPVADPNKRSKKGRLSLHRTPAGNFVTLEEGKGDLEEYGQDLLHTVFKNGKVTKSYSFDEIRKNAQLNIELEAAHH

Compound: O=C(NCCCCCCNc1nonc1/C(=N/O)Nc1ccc(F)c(Br)c1)c1ccc2nccn2c1
IC50 [1]: 57.7 nM
Activity (A549 [2]): Active
IC50 (A549 [3]): 5350 nM
inhibition in vivo at 50 mg/kg (A549 [4]): 24.6%
Activity (A549 [5]): inactive
Activity (A549 [6]): Dose-Dependent Effect
Activity (A549 [7]): Active
Activity (A549 [8]): Active
bioavailability [9]: 52.5%
Activity (A549 [10]): Dose-Dependent Effect
Activity (A549 [11]): Active
Activity [12]: Non-Toxic
inhibition in vivo at 200 mg/kg (A549 [13]): 53.8%
Activity (A549 [14]): Active
IC50 [15]: 160 nM
Activity (A549 [16]): inactive
Activity (A549 [17]): Active
Activity (A549 [18]): Dose-Dependent Effect
clearance [19]: 106 mL/min/kg
inhibition in vivo at 100 mg/kg (A549 [20]): 40.2%
Activity (A549 [21]): Active
Activity (A549 [22]): Active
AUC [23]: 2530 ng·h/mL
Activity (A549 [24]): Active
Vd [25]: 11.5 L/kg
Activity (A549 [26]): Active
IC50 [27]: 233 nM
Activity (Danio rerio [28]): Active
Activity (A549 [29]): Active
Activity [30]: Non-Toxic
Activity (A549 [31]): inactive
Activity (Danio rerio [32]): Active
Activity (A549 [33]): Active
Activity (A549 [34]): inactive
Activity (A549 [35]): Dose-Dependent Effect
inhibition (A549 [36]): Dose-Dependent Effect
Activity (A549 [37]): inactive
Activity (A549 [38]): Dose-Dependent Effect
Activity (A549 [39]): Dose-Dependent Effect
inhibition in vivo at 100 mg/kg (A549 [40]): 64.3%

IC50 [15]: > 1000 nM
IC50 [27]: > 1000 nM
Compound: O=C(NCCCNc1nonc1/C(=N/O)Nc1ccc(F)c(Br)c1)c1ccc2nccn2c1

IC50 [15]: > 1000 nM
IC50 [27]: > 1000 nM
Compound: O=C(NCCNc1nonc1/C(=N/O)Nc1ccc(F)c(Br)c1)c1ccc2nccn2c1

IC50 [27]: > 1000 nM
Compound: O=C(c1ccc2nccn2c1)N1CCC(CCNc2nonc2/C(=N/O)Nc2ccc(F)c(Br)c2)CC1

IC50 [15]: 670 nM
IC50 [27]: 858 nM
Compound: O=C(NCCCCCNc1nonc1/C(=N/O)Nc1ccc(F)c(Br)c1)c1ccc2nccn2c1

IC50 [15]: 520 nM
IC50 [27]: 660 nM
Compound: O=C(NCCCCNc1nonc1/C(=N/O)Nc1ccc(F)c(Br)c1)c1ccc2nccn2c1

IC50 [1]: 4880 nM
IC50 [27]: > 1000 nM
Compound: O=C(NCc1ccc(CNc2nonc2/C(=N/O)Nc2ccc(F)c(Br)c2)cc1)c1ccc2nccn2c1

IC50 [1]: > 10000 nM
IC50 [15]: 663 nM
IC50 [27]: 730 nM
Compound: O=C(CCCNc1nonc1/C(=N/O)Nc1ccc(F)c(Br)c1)Nc1ccc(CNC(=O)c2ccc3nccn3c2)cc1

IC50 [1]: > 10000 nM
IC50 [27]: > 1000 nM
Compound: O=C(Nc1ccc(CCNc2nonc2/C(=N/O)Nc2ccc(F)c(Br)c2)cc1)c1ccc2nccn2c1
